Data set [1] concerns BRCA2-/-:p53-/-, BRCA1-/-:p53-/- and p53-/- MEFs. The experiment in a line: Sensitivity of isogenic MEFs to IBR2. In kind it is cell-based. To be noted: compared with BRCA1-/-:p53-/- and p53-/- MEFs. The text has this: Next, the inventors examined the sensitivity to IBR2 treatment of isogenic MEFs with genotypes of BRCA2−/−:p53−/−, BRCA1−/−:p53−/− and p53−/−.
The subject of another data set is MCF-7 cells. The experiment in a line: Cell cycle analysis by flow cytometry (FACS). It is filed as cell-based. To be noted: 20 μM IBR2, time-dependent. The protocol: To explore the mechanism of how IBR2 inhibits cancer cell growth, the inventors analyzed cell cycle progression of IBR2 treated MCF-7 cells by flow cytometry (FACS).
Cell cycle analysis by flow cytometry: To analyze cell cycle distribution, […] MCF-7 cells were seeded in 10-cm dishes for 24 hours and treated with […] IBR2 for various times. Cells were then trypsinized and fixed with 70% ethanol (−20° C.) and stained for 30 minutes with propidium iodide (PI) staining solution (Yun et al., 2005) (50 μg/ml PI, 0.1% sodium citrate, 50 μg/ml RNase A, 0.03% NP-40 in PBS). Flow cytometry analysis was performed using a FACScalibur flow cytometer and cell cycle distribution was analyzed with CellQuest software (Beckton Dickison). 10,000 events were analyzed for each sample and the experiment was repeated twice.
In general terms: Flow cytometry measures light scatter and fluorescence of single cells or particles in a stream.

A further data set deals with T1, Rad51-BRC repeat complex (Homo sapiens, UniProt Q06609).
T1 sequence (Q06609 1-339): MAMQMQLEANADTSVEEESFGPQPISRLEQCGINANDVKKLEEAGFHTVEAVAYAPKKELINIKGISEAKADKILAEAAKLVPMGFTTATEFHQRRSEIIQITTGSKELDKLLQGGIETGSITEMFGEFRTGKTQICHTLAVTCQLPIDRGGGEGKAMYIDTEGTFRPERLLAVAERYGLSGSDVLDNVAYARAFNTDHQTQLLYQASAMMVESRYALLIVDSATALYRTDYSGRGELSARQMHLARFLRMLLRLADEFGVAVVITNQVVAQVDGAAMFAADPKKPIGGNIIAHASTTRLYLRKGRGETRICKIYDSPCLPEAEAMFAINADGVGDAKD
The experiment in a line: SPR solution competition assay. It is filed as binding. The note with it: SPR solution competition format; read-out: median inhibitory concentration (IC50), displacement of BRC repeat from complex with Rad51. The text has this:
(§1) If the IBR compound indeed occupies the hydrophobic pocket for the entrance of Phe1524 in BRCA2, the oligomerization of Rad51 should also be affected since they share the same binding region. […] Therefore, if IBR2 mimics the BRC hairpin structure, the Rad51 multimerization will also be inhibited by IBR2. We compared the gel filtration profile of Rad51 between with and without IBR2. […] The inhibition of the Rad51 and BRC repeat binding was further analyzed by SPR technology in a solution competition format as previously described (see e.g., Science 303, 844-848).
Surface Plasmon Resonance binding assays: The assays were performed at 25° C. in HBSD buffer (10 mM HEPES, 150 mM NaCl, 0.1% DMSO) on Biacore3000 (Biacore Inc.). Sensor chips NTA or glutathione-modified CM5 were used to capture His-Rad51 or GST-BRC1, respectively. The capture level was about 130 resonance units at a flow rate of 5 μl/min. For sequential binding assays, chips were treated with compounds (1 μM) and then proteins (50 μg/ml). The retained resonance units (RU) were recorded and averaged from triplicate experiments. For competition assays (Vassilev et al., 2004), IBR2 was incubated with 50 μg/ml BRC at 25° C. for 15 minutes prior to use. Relative binding percentages were calculated with respect to the binding without IBR2 and averaged from two independent experiments.

Data set [2] has as its system IR-induced Rad51 foci in MCF-7 breast cancer cells. The experiment in a line: IR-induced Rad51 foci formation (immunostaining). It is filed as cell-based. To be noted: MCF-7 cells.
Description: These compounds were then tested for their effects on IR-induced Rad51 foci formation in MCF-7 breast cancer cells.
To test this possibility, the number of the MCF-7 cells that formed IR-induced Rad51 foci was measured after IBR2 treatment.
Immunostaining Rad51 and g-H2AX foci: MCF-7 cells were treated with 20 μM IBR2 for 7 or 19 hours and then g-irradiated at 20 Gy. Cells were incubated for an additional 5 hours with 20 μM IBR2, then fixed with 4% paraformaldehyde in PBS containing 0.5% Triton X-100. The fixed cells were incubated with a-Rad51 antibody (mAb 1F5) or a-g-H2AX antibody (Upstate). Rad51 and g-H2AX foci positive cells were subsequently counted as described (Chen et al., 1999).
Another data set has as its target T2, Rad51 multimers (Homo sapiens, UniProt Q06609).
T2 sequence (Q06609 1-339): T1 sequence (Q06609 1-339)
The experiment in a line: Gel filtration of Rad51 multimers. In kind it is biochemical. The note with it: Rad51:compound molar ratio 1:10.
Text: as §1
Gel filtration: A mixture of Rad51 (3.2 μg) and small compound (molar ratio 1:10) was incubated for 15 minutes at 37° C., supplemented with buffer (50 mM triethanolamine-HCl [pH 7.5], 0.5 mM Mg (OAc)2, 1 mM dithiothreitol, 2 mM ATP, and 100 μg/ml BSA, total volume 20 μl) and incubated 15 more minutes. Then the mixture was loaded onto 2.4 ml Superdex 200 PC 3.2/30 columns (Pharmacia) equilibrated with the same buffer as described (Davies et al., 2001). Fractions (50 μl) were collected and 0.5 μl of each fraction was blotted onto PVDF membrane. Rad51 was detected using anti-Rad51 antibody (mAb 14B4).
(SEC sorts molecules by how far they enter the pores of the column.)

Data set [3] has as its system human breast cancer xenograft (MDA-MB-468). The data set can be described thus: Tumor inhibition assay in nude mice. In kind it is in vivo. The protocol:
To test the inhibitory effect of IBR2 on the growth of established tumor xenografts in nude mice, we chose the human breast cancer cell line MDA-MB-468 for this study. Mice with tumor size of approximately 85 mm3 were treated with three doses of IBR2 (10, 50 and 150 mg/kg i.p.) every other day for up to five weeks.
Tumor inhibition assay in nude mice: 5×10^6 MDA-MB-468 cells in 100 μl of PBS were injected into mammary fat pad of 6-8 week old athymic female BALB/c-nude mice (nu/nu) (Charles River Laboratories). After tumors grew to 85 mm^3 (day 12), mice were randomized into four groups (n=5 per group) to receive intraperitoneal injection of IBR2 (10, 50, or 150 mg/kg) or vehicle (15% DMSO, 20% Tween 20, 10% PEG400, 55% saline) every other day for 5 weeks. Body weights of mice and tumor volumes were measured twice weekly during the course of drug treatment. A Student's t test was used to determine P value.

pIC50: −log10 of the molar value. Entries after “also recorded” stand apart in the source; their conditions may differ.

Consider `O=S(=O)(Cc1ccccc1)N1C=Cc2ccccc2C1c1c[nH]c2ccccc12` (centres unmarked) [IBR2, 2-(benzylsulfonyl)-1-(1H-indol-3-yl)-1,2-dihydroisoquinoline], for which the “sensitivity of BRCA2-/-:p53-/- MEFs to IBR2” value in data set [1] was “most sensitive”. In addition, in the data set with MCF-7 cells, the G1 fraction result was “increased”; the “S and G2/M fractions” value is “depleted”; the “sub-G1 fraction (apoptotic cells)” value is on record as “significantly increased”. For the same compound, at Rad51-BRC repeat complex, the pIC50 is ~6.94. Besides, the “IR-induced Rad51 foci formation” value in data set [2] is “dramatically reduced Rad51 foci formation; also recorded: significantly reduced IR-induced Rad51 foci formation”. Besides, the “Rad51 multimerization (gel filtration elution profile)” value at Rad51 multimers is given as “dissociates Rad51 multimers”. Moreover, in data set [3] (10, 50 and 150 mg/kg i.p.), the “average body weights of nude mice” value is reported as “remained almost constant” and the toxicity to animals entry is given as “without apparent toxicity to animals”. Also, in data set [3] (10, 50 and 150 mg/kg i.p. every other day up to five weeks, vs vehicle), the “retardation of tumor growth” value is “up to 65%”. In addition, in data set [3] (mouse, in vivo), the “tumorigenicity in nude mice” value is “significantly reduced tumorigenicity in nude mice”.

Source of the values: patent US8293764B2, “Compositions and methods for disruption of BRCA2-Rad51 interaction” (The Regents of the University of California, priority 2004, dated 2012).
